{
  "source": "patent US8507548B2",
  "about": "“Method for treating addiction using quercetin-containing compositions” (Quercegen Pharmaceuticals LLC, priority 2008, dated 2013)",
  "key": {"[1]": {"tested_on": "withdrawal symptoms accompanied with addiction", "conditions": "e.g., alcohol abstinence-induced anxiety and convulsion; Joshi et al., J. Med. Food 2005; cited from earlier work"}, "neuron cells": {"tested_on": "neuron cells", "test": "re-uptake of neurotransmitters by neuron cells", "type": "cell-based"}},
  "data": [
    {"compound": "O=c1c(O)c(-c2ccc(O)c(O)c2)oc2cc(O)cc(O)c12", "note": "[Quercetin]", "values": [
      {"measurement": "effect on withdrawal symptoms accompanied with addiction", "setting": "[1]", "result": "alleviate withdrawal symptoms"},
      {"measurement": "re-uptake of neurotransmitters by neuron cells", "setting": "neuron cells", "result": "block re-uptake of neurotransmitters by neuron cells"}
    ]}
  ]
}
